Experimental data taken from patent US20110269838A1, “NOVEL PROCESSES AND PURE POLYMORPHS” (priority 2008, published 2011).

Assay: Polymorphic stability on storage
Type: physicochemical
Settings: kept at 40° C.±2° C. and relative humidity 75%±5% for 6 months; samples prepared in examples 1 to 5

For O=C(CCCCCCC(=O)Nc1ccccc1)NO [crystalline vorinostat form I, N-hydroxy-N′-phenyl-octanediamide], which “polymorphic stability (conversion over time to other polymorphs)” value is on record?
Its value is “no conversion over time to other polymorphs”.
